Test results as given in patent US20250179047A1, “5-[7-(3,4-DIHYDRO-1H-ISOQUINOLINE-2-CARBONYL)-1,2,3,4 TETRAHYDROISOQUINOLIN-6-YL]-1H-PYRROLE-3-CARBOXAMIDE DERIVATIVES, PHARMACEUTICAL COMPOSITIONS CONTAINING THEM AND THEIR USES AS PRO-APOPTOTIC AGENTS” (LES LABORATOIRES SERVIER, priority 2022, published 2025).

Experiments:
[1] = target: BCL2 G101V (Homo sapiens, UniProt P10415, G101V); assay: TR-FRET competitive binding assay, BCL2 G101V; details: BCL2 G101V; Ki determined from IC50; read-out: TR_FRET EKI_Bcl2 G101V
How it was run: (§1)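 Competitive TR-FRET displacement of fluorescein-PUMA peptide (2 or 20 nM) from 0.5 nM terbium-labelled N-terminal Halo-fusion BCL2 (1-207, wild type or mutant) or BCLXL (2-196), expressed in E. coli. Buffer 50 mM Hepes pH 7.5, 150 mM NaCl, 5% DMSO; 2 h at 23°C. 520/495 nm ratio fitted over 11 points for IC50, converted to Ki.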

[2] = system: BCL2 G101V; assay: TR-FRET competitive binding assay, BCL2 G101V; design: species or system human; details: ratio Ki BCL2 G101V / Ki BCL2 WT
How it was run: as §1

[3] = system: KMS-12-PE Bcl-2 G101V; assay: In vitro cytotoxicity CellTiter-Glo 48 h, KMS-12-PE Bcl-2 G101V; assay type: cell-based; details: for Ratio (G101V/WT): C50 KMS-12-PE Bcl-2 G101V over C50 KMS-12-PE Bcl-2 WT; for IC50: Homo sapiens, KMS-12-PE, 48 h, CellTiter-Glo, C50 = concentration needed to reach 50% of the cellular viability
How it was run: (§2)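 Bcl-2 WT- and G101V-expressing KMS-12-PE cells; 48 h treatment at 37 °C, 5% CO2; CellTiter-Glo ATP luminescence; C50 from 11-point curves.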

[4] = system: KMS-12-PE Bcl-2 WT; assay: In vitro cytotoxicity CellTiter-Glo 48 h, KMS-12-PE Bcl-2 WT; assay type: cell-based; details: Homo sapiens, KMS-12-PE, C50 = concentration needed to reach 50% of the cellular viability
How it was run: as §2

[5] = target: BCL2 WT (Homo sapiens (Human), UniProt P10415); assay: TR-FRET competitive binding assay, BCL2 WT; details: Ki determined from IC50, read-out: TR_FRET EKI_Bcl2 WT
How it was run: as §1

[6] = target: BCLXL WT (Homo sapiens (Human), UniProt Q07817); assay: TR-FRET competitive binding assay, BCLXL WT; details: for Ki: BCLXL WT, Ki determined from IC50, read-out: TR_FRET EKI BclxL; for TR_FRET EKI BCLxL/WT selectivty ratio: ratio Ki BCLxL / Ki BCL2 WT
How it was run: as §1

[7] = target: BCL2 D103Y (Homo sapiens, UniProt P10415, D103Y); assay: TR-FRET competitive binding assay, BCL2 D103Y; details: Ki determined from IC50, read-out: TR_FRET EKI_Bcl2 D103Y
How it was run: as §1

Chain of BCLXL WT (Q07817 other isoform, or with tags, fused parts or gaps): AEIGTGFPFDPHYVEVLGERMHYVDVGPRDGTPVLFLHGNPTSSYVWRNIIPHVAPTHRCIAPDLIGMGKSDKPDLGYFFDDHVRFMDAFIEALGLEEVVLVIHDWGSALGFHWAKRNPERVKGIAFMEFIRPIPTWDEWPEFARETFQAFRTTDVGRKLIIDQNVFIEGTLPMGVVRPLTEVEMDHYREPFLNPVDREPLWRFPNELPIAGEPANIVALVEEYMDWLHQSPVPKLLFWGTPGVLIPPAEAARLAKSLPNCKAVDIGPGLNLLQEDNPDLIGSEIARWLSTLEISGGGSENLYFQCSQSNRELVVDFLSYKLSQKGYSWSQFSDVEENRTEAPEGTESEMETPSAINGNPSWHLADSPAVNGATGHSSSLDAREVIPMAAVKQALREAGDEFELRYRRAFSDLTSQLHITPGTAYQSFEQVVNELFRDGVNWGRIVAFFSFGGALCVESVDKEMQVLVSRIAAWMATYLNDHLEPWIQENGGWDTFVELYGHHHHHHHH

Structure (SMILES)	Ki [1]	TR_FRET EKI G101V/WT selectivty ratio [2]	Ratio (G101V/WT) [3]	IC50 [3]	IC50 [4]	Ki [5]	Ki [6]	TR_FRET EKI BCLxL/WT selectivty ratio [6]	Ki [7]
Cc1c(N(C(=O)c2cc(-c3cc4c(cc3C(=O)N3Cc5ccccc5C[C@H]3CN3CCCC3)CN(C(=O)Cc3ccc(OCCN5CCOCC5)cc3F)CC4)n(C)c2C)c2ccc(O)cc2)cc(C#N)n1C [Example 100, N-(5-cyano-1,2-dimethylpyrrol-3-yl)-5-[2-(2-{2-fluoro-4-[2-(morpholin-4-yl)ethoxy]phenyl}acetyl)-7-{[(3S)-3-(pyrrolidin-1-ylmethyl)-3,4-dihydro-1H-isoquinolin-2-yl]carbonyl}-3,4-dihydro-1H-isoquinolin-6-yl]-N-(4-hydroxyphenyl)-1,2-dimethylpyrrole-3-carboxamide]	0.2 nM	8.9	4.23	0.066 µM	0.0156 µM	0.02 nM	2.3 nM	127.8	0.06 nM
Cc1c(N(C(=O)c2cc(-c3cc4c(cc3C(=O)N3Cc5ccccc5C[C@H]3CN3CCCCC3)CN(C(=O)Cc3ccc(OCCN(C)CC5COC5)cc3F)CC4)n(C)c2C)c2ccc(O)cc2)cc(C#N)n1C [Example 103, N-(5-cyano-1,2-dimethyl-1H-pyrrol-3-yl)-5-(2-{2-[2-fluoro-4-(2-{methyl[(oxetan-3-yl)methyl]amino}ethoxy)phenyl]acetyl}-7-[(3S)-3-[(piperidin-1-yl)methyl]-1,2,3,4-tetrahydroisoquinoline-2-carbonyl]-1,2,3,4-tetrahydroisoquinolin-6-yl)-N-(4-hydroxyphenyl)-1,2-dimethyl-1H-pyrrole-3-carboxamide]	0.2 nM	6.5	6.66	0.0399 µM	0.006 µM	0.03 nM	1.1 nM	35.5	0.09 nM
Cc1c(N(C(=O)c2cc(-c3cc4c(cc3C(=O)N3Cc5ccccc5C[C@H]3CN3CCCCC3)CN(C(=O)Cc3ccc(OCCN(C)CC5COC5)cc3)CC4)n(C)c2C)c2ccc(O)cc2)cc(C#N)n1C [Example 104, N-(5-cyano-1,2-dimethyl-1H-pyrrol-3-yl)-N-(4-hydroxyphenyl)-1,2-dimethyl-5-(2-{2-[4-(2-{methyl[(oxetan-3-yl)methyl]amino}ethoxy)phenyl]acetyl}-7-[(3S)-3-[(piperidin-1-yl)methyl]-1,2,3,4-tetrahydroisoquinoline-2-carbonyl]-1,2,3,4-tetrahydroisoquinolin-6-yl)-1H-pyrrole-3-carboxamide]	0.4 nM	5.8	5.38	0.0893 µM	0.0166 µM	0.07 nM	2.6 nM	40.0	0.17 nM
Cc1c(N(C(=O)c2cc(-c3cc4c(cc3C(=O)N3Cc5ccccc5C[C@H]3CN3CCCCC3)CN(C(=O)Cc3ccc(OCCN(C)C5COC5)cc3)CC4)n(C)c2C)c2ccc(O)cc2)cc(C#N)n1C [Example 106, N-(5-cyano-1,2-dimethyl-1H-pyrrol-3-yl)-N-(4-hydroxyphenyl)-1,2-dimethyl-5-{2-[2-(4-{2-[methyl(oxetan-3-yl)amino]ethoxy}phenyl)acetyl]-7-[(3S)-3-[(piperidin-1-yl)methyl]-1,2,3,4-tetrahydroisoquinoline-2-carbonyl]-1,2,3,4-tetrahydroisoquinolin-6-yl}-1H-pyrrole-3-carboxamide]	0.3 nM	6.2	4.53	0.0485 µM	0.0107 µM	0.05 nM	1.8 nM	36.0	0.19 nM
